Experimental data from US11981686B2, “Urea compound having substituent” (DAIICHI SANKYO COMPANY, LIMITED, priority 2019, dated 2024).

What follows are molecules tested against SIRT6 enzyme (Homo sapiens, UniProt Q8N6T7) (assay: Measurement of deacetylation activity (SIRT6, AlphaLISA, H3K9(Ac) peptide)). Settings: SIRT6 25 ng/mL, H3K9(Ac) biotin peptide 2 nM, NAD 10 μM, room temperature 30 minutes, duplicate.
Format: biochemical
How it was run: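 SIRT6 (25 ng/mL final) in Tris-HCl pH 8.0 buffer with compound (e.g. 0.046–100 μM final) reacted with biotin-H3K9(Ac) peptide (2 nM) and NAD+ (10 μM), 30 min, room temperature. Stopped with nicotinamide plus AlphaLISA anti-unmodified H3K9/K27 beads, 60 min; EC150 (150% relative activity) from sigmoidal fit.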

SIRT6 enzyme, sequence (Q8N6T7 whole entry, species assumed): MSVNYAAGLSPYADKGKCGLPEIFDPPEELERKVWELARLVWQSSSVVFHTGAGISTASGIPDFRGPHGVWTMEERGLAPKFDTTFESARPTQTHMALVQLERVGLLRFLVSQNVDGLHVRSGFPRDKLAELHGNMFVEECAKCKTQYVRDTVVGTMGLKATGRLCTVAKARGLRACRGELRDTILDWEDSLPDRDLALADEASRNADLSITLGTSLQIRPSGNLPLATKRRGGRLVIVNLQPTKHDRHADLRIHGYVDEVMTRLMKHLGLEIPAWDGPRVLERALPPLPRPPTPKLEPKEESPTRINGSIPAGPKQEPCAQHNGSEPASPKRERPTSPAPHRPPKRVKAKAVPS

Row | Compound | EC150 (the concentration of the compound showing a relative enzyme activity of 150%) [μm]
1 | CC(C)(CO)NC(=O)Nc1nc2c(s1)[C@@H]1COC[C@H](C2)N1c1cc(-c2ccc(F)cc2)on1 [Example 160, N-{(4S,8S)-10-[5-(4-fluorophenyl)-1,2-oxazol-3-yl]-4,7,8,9-tetrahydro-5H-4,8-epiminooxocino[5,4-d][1,3]thiazol-2-yl}-N′-(1-hydroxy-2-methylpropan-2-yl)urea] | 3.2
2 | O=C(Nc1nc2c(s1)[C@@H]1COC[C@H](C2)N1c1nc2cc(Cl)ccc2o1)N[C@H]1CC[C@H](O)CC1 [Example 149, N-[(4S,8S)-10-(5-chloro-1,3-benzoxazol-2-yl)-4,7,8,9-tetrahydro-5H-4,8-epiminooxocino[5,4-d] [1,3]thiazol-2-yl]-N′-[(1r,4r)-4-hydroxycyclohexyl]urea] | 0.45
3 | O=C(Nc1nc2c(s1)CN(c1nc(C3CCC(F)(F)CC3)no1)CC2)NC1(CO)CC1 [Example 105, N-{5-[3-(4,4-difluorocyclohexyl)-1,2,4-oxadiazol-5-yl]-4,5,6,7-tetrahydro[1,3]thiazolo[5,4-c]pyridin-2-yl}-N′-[1-(hydroxymethyl)cyclopropyl]urea] | 2
4 | COc1ccc2oc(N3[C@@H]4COC[C@H]3c3sc(NC(=O)N[C@@H]5CCOC5)nc3C4)nc2c1 [Example 47, N-[(4S,8S)-10-(5-methoxy-1,3-benzoxazol-2-yl)-4,7,8,9-tetrahydro-5H-4,8-epiminooxocino[5,4-d][1,3]thiazol-2-yl]-N′-[(3R)-oxolan-3-yl]urea] | 0.83
5 | C[C@H](CO)NC(=O)Nc1nc2c(s1)CN(c1nc(C3CCC(F)(F)CC3)no1)CC2 [Example 5, N-{5-[3-(4,4-difluorocyclohexyl)-1,2,4-oxadiazol-5-yl]-4,5,6,7-tetrahydro[1,3]thiazolo[5,4-c]pyridin-2-yl}-N′-[(2R)-1-hydroxypropan-2-yl]urea] | 1.5
6 | CCc1cccc(-c2nnc(N3[C@@H]4COC[C@H]3c3sc(NC(=O)NC)nc3C4)o2)c1 [Example 118, N-{(4S,8S)-10-[5-(3-ethylphenyl)-1,3,4-oxadiazol-2-yl]-4,7,8,9-tetrahydro-5H-4,8-epiminooxocino[5,4-d][1,3]thiazol-2-yl}-N′-methylurea] | 1.8
7 | CC(C)(O)CNC(=O)Nc1nc2c(s1)CN(c1nc3cc(S(C)(=O)=O)ccc3o1)C(C)(C)C2 [Example 75, N-(2-hydroxy-2-methylpropyl)-N′-{5-[5-(methanesulfonyl)-1,3-benzoxazol-2-yl]-6,6-dimethyl-4,5,6,7-tetrahydro[1,3]thiazolo[5,4-c]pyridin-2-yl}urea] | 0.94
8 | COc1ccc2oc(N3[C@@H]4COC[C@H]3c3sc(NC(=O)NCC(C)(C)O)nc3C4)nc2c1 [Example 46, N-(2-hydroxy-2-methylpropyl)-N′-[(4S,8S)-10-(5-methoxy-1,3-benzoxazol-2-yl)-4,7,8,9-tetrahydro-5H-4,8-epiminooxocino[5,4-d][1,3]thiazol-2-yl]urea] | 2.1
9 | O=C(Nc1nc2c(s1)CN(c1nc(C3CC(F)(F)CCO3)no1)CC2)N[C@@H]1CCOC1 (stereo partly drawn) [Example 95, N-{5-[3-(4,4-difluorooxan-2-yl)-1,2,4-oxadiazol-5-yl]-4,5,6,7-tetrahydro[1,3]thiazolo[5,4-c]pyridin-2-yl}-N′-[(3R)-oxolan-3-yl]urea] | 2.2
10 | O=C(Nc1nc2c(s1)[C@@H]1COC[C@H](C2)N1c1nc(C2(C(F)(F)F)CC2)no1)N[C@@H]1CCOC1 [Example 37, N-[(3R)-oxolan-3-yl]-N′-[(4S,8S)-10-{3-[1-(trifluoromethyl)cyclopropyl]-1,2,4-oxadiazol-5-yl}-4,7,8,9-tetrahydro-5H-4,8-epiminooxocino[5,4-d][1,3]thiazol-2-yl]urea] | 4.6
11 | CNC(=O)Nc1nc2c(s1)C1CN(C(=O)OC(C)C)CC(C2)N1c1nc(-c2ccc(F)cc2)no1 (stereo not drawn) [Example 32, Propan-2-yl 10-[3-(4-fluorophenyl)-1,2,4-oxadiazol-5-yl]-2-[(methylcarbamoyl)amino]-4,7,8,9-tetrahydro-4,8-epimino[1,3]thiazolo[5,4-d]azocine-6(5H)-carboxylate] | 0.27
12 | C[C@H](CO)NC(=O)Nc1nc2c(s1)C1CCC(C2)N1c1nc2cc(S(C)(=O)=O)ccc2o1 (stereo partly drawn) [Example 152, N-[(2R)-1-hydroxypropan-2-yl]-N′-{9-[5-(methanesulfonyl)-1,3-benzoxazol-2-yl]-5,6,7,8-tetrahydro-4H-5,8-epiminocyclohepta[d][1,3]thiazol-2-yl}urea] | 2.7
13 | CNC(=O)Nc1nc2c(s1)[C@@H]1COC[C@H](C2)N1c1nc(-c2ccc(F)cc2)no1 (single isomer, unassigned) [Example 13] | 1.3
14 | C[C@@H](CO)NC(=O)Nc1nc2c(s1)[C@@H]1COC[C@H](C2)N1c1ncc(-c2cccc(C(F)F)c2)o1 [Example 168, N-[(4S,8S)-10-{5-[3-(difluoromethyl)phenyl]-1,3-oxazol-2-yl}-4,7,8,9-tetrahydro-5H-4,8-epiminooxocino[5,4-d][1,3]thiazol-2-yl]-N′-[(2S)-1-hydroxypropan-2-yl]urea] | 0.35
15 | O=C(Nc1nc2c(s1)[C@@H]1COC[C@H](C2)N1c1cc(-c2ccc(F)cc2)on1)N[C@H]1C[C@@H](O)C1 [Example 158, N-{(4S,8S)-10-[5-(4-fluorophenyl)-1,2-oxazol-3-yl]-4,7,8,9-tetrahydro-5H-4,8-epiminooxocino[5,4-d][1,3]thiazol-2-yl}-N′-[(1s,3R)-3-hydroxycyclobutyl]urea] | 1.1
16 | CCOC(=O)N1CC2Cc3nc(NC(=O)NC)sc3C(C1)N2c1nc(C2(C(F)(F)F)CC2)no1 (stereo not drawn) [Example 134, Ethyl 2-[(methylcarbamoyl)amino]-10-{3-[1-(trifluoromethyl)cyclopropyl]-1,2,4-oxadiazol-5-yl}-4,7,8,9-tetrahydro-4,8-epimino[1,3]thiazolo[5,4-d]azocine-6(5H)-carboxylate] | 3.5
17 | C[C@H](CO)NC(=O)Nc1nc2c(s1)[C@@H]1COC[C@H](C2)N1c1ncc(-c2cccc(OC(F)F)n2)o1 [Example 66, N-[(4S,8S)-10-{5-[6-(difluoromethoxy)pyridin-2-yl]-1,3-oxazol-2-yl}-4,7,8,9-tetrahydro-5H-4,8-epiminooxocino[5,4-d][1,3]thiazol-2-yl]-N′-[(2R)-1-hydroxypropan-2-yl]urea] | 0.39
18 | C[C@@H](O)CNC(=O)Nc1nc2c(s1)CN(c1cc(C3CCC(F)(F)CC3)on1)CC2 [Example 153, N-{5-[5-(4,4-difluorocyclohexyl)-1,2-oxazol-3-yl]-4,5,6,7-tetrahydro[1,3]thiazolo[5,4-c]pyridin-2-yl}-N′-[(2R)-2-hydroxypropyl]urea] | 2.1
19 | CNC(=O)Nc1nc2c(s1)C1CN(C(=O)OC)CC(C2)N1c1nc2cc(OC)ccc2o1 (stereo not drawn) [Example 141, Methyl 10-(5-methoxy-1,3-benzoxazol-2-yl)-2-[(methylcarbamoyl)amino]-4,7,8,9-tetrahydro-4,8-epimino[1,3]thiazolo[5,4-d]azocine-6(5H)-carboxylate] | 0.58
20 | O=C(Nc1nc2c(s1)[C@@H]1COC[C@H](C2)N1c1cc(-c2ccc(F)cc2)on1)NC1CCOCC1 [Example 161, N-{(4S,8S)-10-[5-(4-fluorophenyl)-1,2-oxazol-3-yl]-4,7,8,9-tetrahydro-5H-4,8-epiminooxocino[5,4-d][1,3]thiazol-2-yl}-N′-oxan-4-ylurea] | 0.97
21 | CNC(=O)Nc1nc2c(s1)C1COCC(C2)N1c1nnc(-c2cccc(C(=O)C3CCC3)c2)o1 (stereo not drawn) [Example 113, N-(10-{5-[3-(cyclobutanecarbonyl)phenyl]-1,3,4-oxadiazol-2-yl}-4,7,8,9-tetrahydro-5H-4,8-epiminooxocino[5,4-d][1,3]thiazol-2-yl)-N′-methylurea] | 2.6
22 | CC(C)(O)CNC(=O)Nc1nc2c(s1)[C@@H]1COC[C@H](C2)N1c1cc(-c2ccc(F)cc2)on1 [Example 63, N-{(4S,8S)-10-[5-(4-fluorophenyl)-1,2-oxazol-3-yl]-4,7,8,9-tetrahydro-5H-4,8-epiminooxocino[5,4-d][1,3]thiazol-2-yl}-N′-(2-hydroxy-2-methylpropyl)urea] | 2.3
23 | O=C(Nc1nc2c(s1)[C@@H]1COC[C@H](C2)N1c1ncc(-c2cccc(OC(F)F)c2)o1)N[C@@H]1CCOC1 [Example 73, N-[(4S,8S)-10-{5-[3-(difluoromethoxy)phenyl]-1,3-oxazol-2-yl}-4,7,8,9-tetrahydro-5H-4,8-epiminooxocino[5,4-d][1,3]thiazol-2-yl]-N′-[(3R)-oxolan-3-yl]urea] | 0.4
24 | CNC(=O)Nc1nc2c(s1)C1CN(C(=O)OC)CC(C2)N1c1nc(C2CCC(F)(F)C2)no1 (stereo not drawn) [Example 131, Methyl 10-[3-(3,3-difluorocyclopentyl)-1,2,4-oxadiazol-5-yl]-2-[(methylcarbamoyl)amino]-4,7,8,9-tetrahydro-4,8-epimino[1,3]thiazolo[5,4-d]azocin-6(5H)-carboxylate] | 1.4
